A value given as a limit tells only on which side of the number the result lay.

We go through 22 compounds from ChEMBL document CHEMBL1142738, “N-substituted piperidinyl alkyl imidazoles: discovery of methimepip as a potent and selective histamine H3 receptor agonist” (J Med Chem, 2005).

Assay [1] deals with T1, Histamine H3 receptor (Homo sapiens, UniProt Q9Y5N1). The assay is described as follows: Inhibition of cAMP-stimulated beta-galactosidase transcription in SK-N-MC cells expressing human H3 receptor. Format: functional, cell-based.
T1 sequence (Q9Y5N1 whole entry): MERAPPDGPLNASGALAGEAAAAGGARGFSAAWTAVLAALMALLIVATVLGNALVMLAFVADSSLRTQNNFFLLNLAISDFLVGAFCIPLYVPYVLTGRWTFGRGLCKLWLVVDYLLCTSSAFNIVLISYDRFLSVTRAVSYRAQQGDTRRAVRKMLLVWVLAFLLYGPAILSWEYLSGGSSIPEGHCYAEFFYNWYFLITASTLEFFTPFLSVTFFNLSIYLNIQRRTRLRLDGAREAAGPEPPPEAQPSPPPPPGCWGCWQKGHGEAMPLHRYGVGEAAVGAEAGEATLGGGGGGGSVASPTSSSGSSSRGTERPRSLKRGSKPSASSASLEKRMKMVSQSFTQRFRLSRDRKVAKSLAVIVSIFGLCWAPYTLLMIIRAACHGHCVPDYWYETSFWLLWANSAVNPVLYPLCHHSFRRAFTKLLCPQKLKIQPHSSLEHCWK
The target of assay [2] is T1, Histamine H3 receptor. The assay is described as follows: Displacement of [3H]N-R-methylhistamine binding to SK-N-MC cell membranes expressing human H3 receptor. For orientation: Displacement assays read how much labelled ligand stays bound in the presence of the test substance.
The test system of assay [3] is Histamine H3 receptor (Cavia porcellus). Put plainly: Effect on guinea pig ileal muscle contraction evoked by electrical field stimulation (EFS).
The target of the next assay is Histamine H4 receptor (Homo sapiens, UniProt Q9H3N8). Put plainly: Displacement of [3H]histamine binding to SK-N-MC cell membranes expressing human histamine H4 receptor.
Chain of Histamine H4 receptor (Q9H3N8 whole entry): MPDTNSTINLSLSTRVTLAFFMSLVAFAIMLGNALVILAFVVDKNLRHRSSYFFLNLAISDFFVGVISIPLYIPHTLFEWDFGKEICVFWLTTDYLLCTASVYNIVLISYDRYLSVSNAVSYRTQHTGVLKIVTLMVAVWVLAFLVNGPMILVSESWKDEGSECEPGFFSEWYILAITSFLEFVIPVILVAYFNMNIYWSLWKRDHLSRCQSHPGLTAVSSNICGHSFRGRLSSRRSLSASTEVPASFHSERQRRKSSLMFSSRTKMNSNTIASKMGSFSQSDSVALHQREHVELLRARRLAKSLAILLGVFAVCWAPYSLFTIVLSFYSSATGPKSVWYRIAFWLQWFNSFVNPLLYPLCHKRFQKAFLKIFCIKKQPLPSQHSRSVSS
In another assay the target is Histamine H2 receptor (Homo sapiens, UniProt P25021). Put plainly: Displacement of [125I]aminopotentidine binding to CHO cell membranes expressing human histamine H2 receptor.
Chain of Histamine H2 receptor (P25021 whole entry): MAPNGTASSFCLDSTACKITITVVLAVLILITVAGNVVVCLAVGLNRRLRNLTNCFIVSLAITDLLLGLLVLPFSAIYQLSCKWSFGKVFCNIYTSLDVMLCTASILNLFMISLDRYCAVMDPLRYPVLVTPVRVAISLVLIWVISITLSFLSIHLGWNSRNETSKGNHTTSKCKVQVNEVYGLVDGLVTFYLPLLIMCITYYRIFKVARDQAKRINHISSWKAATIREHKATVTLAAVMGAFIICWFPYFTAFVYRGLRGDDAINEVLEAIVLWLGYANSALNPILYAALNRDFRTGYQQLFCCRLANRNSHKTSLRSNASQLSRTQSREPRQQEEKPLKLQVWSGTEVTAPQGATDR
Another assay has as its target Histamine H1 receptor (Homo sapiens, UniProt P35367). Put plainly: Displacement of [3H]mepyramine binding to COS-7 cell membranes expressing human histamine H1 receptor.

Chain of Histamine H1 receptor (P35367 whole entry): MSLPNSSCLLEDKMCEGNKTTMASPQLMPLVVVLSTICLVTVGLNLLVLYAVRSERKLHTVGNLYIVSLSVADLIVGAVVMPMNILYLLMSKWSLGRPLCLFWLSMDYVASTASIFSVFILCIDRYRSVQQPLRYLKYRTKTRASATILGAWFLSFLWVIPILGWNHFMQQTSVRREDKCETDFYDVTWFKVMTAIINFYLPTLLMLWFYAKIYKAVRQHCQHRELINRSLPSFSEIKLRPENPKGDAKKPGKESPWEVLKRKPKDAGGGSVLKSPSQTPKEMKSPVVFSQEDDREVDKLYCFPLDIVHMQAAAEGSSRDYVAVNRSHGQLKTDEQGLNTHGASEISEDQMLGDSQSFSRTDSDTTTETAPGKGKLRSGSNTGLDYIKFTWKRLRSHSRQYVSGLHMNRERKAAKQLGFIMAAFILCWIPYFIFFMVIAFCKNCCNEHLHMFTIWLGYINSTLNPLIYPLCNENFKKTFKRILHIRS

Usually EC50 stands for the concentration that produces a half-maximal response. Low readings indicate an effect from little substance, high ones a need for much substance. In the case of `c1nc(CCC2CCNCC2)c[nH]1`, at Histamine H3 receptor [1], the EC50 was 12.6 nM.
Usually Ki stands for a dissociation constant, usually derived from enzyme kinetics or from competition with a known ligand. A low value points to a stronger hold on the target. At Histamine H3 receptor [1], `CCN1CCC(=Cc2c[nH]cn2)CC1` showed an EC50 of 25.1 nM. On Histamine H3 receptor [2], this compound had a Ki of 50.1 nM.
The corresponding values for `c1ccc(CN2CCC(CCc3c[nH]cn3)CC2)cc1` are above 10000 nM and 79.4 nM.
The corresponding values for `CN1CCC(CCc2c[nH]cn2)CC1` are 50.1 nM and 50.1 nM.
The like results for `c1ccc(CCN2CCC(CCc3c[nH]cn3)CC2)cc1` were, in that order, above 10000 nM and 39.8 nM.
As to `CC(C)N1CCC(Cc2c[nH]cn2)CC1`, the EC50 at Histamine H3 receptor [1] is 7.94 nM. In addition, the affinity on Histamine H3 receptor [2], expressed as Ki, was 63.1 nM.
The like results for `c1nc(CC2CCN(C3CCCCC3)CC2)c[nH]1` were, in that order, 3.98 nM and 15.8 nM.
The corresponding values for `CCN1CCC(Cc2c[nH]cn2)CC1` are 3.98 nM and 15.8 nM.
The like results for `CCN1CCC(CCc2c[nH]cn2)CC1` were, in that order, above 10000 nM and 63.1 nM.
As for `C(=C1CCN(C2CCCCC2)CC1)c1c[nH]cn1`, at Histamine H3 receptor [1], the EC50 was 50.1 nM. The compound further had a Ki at Histamine H3 receptor [2] of 31.6 nM.
`CN1CCC(=Cc2c[nH]cn2)CC1` showed an EC50 on Histamine H3 receptor [1] of 2.51 nM. The same compound gave a Ki on Histamine H3 receptor [2] of 5.01 nM.
The corresponding values for `C(=C1CCN(CCc2ccccc2)CC1)c1c[nH]cn1` are 15.8 nM and 63.1 nM.
The like results for `C(=C1CCN(Cc2ccccc2)CC1)c1c[nH]cn1` were, in that order, 79.4 nM and 398 nM.
The corresponding values for `c1ccc(CCN2CCC(Cc3c[nH]cn3)CC2)cc1` are 7.94 nM and 10 nM.
At Histamine H3 receptor [1], `CC(C)N1CCC(CCc2c[nH]cn2)CC1` showed an EC50 of 200 nM. Moreover, the Ki at Histamine H3 receptor [2] was 100 nM.
`C(=C1CCNCC1)c1c[nH]cn1`: affinity at Histamine H3 receptor [2] was put at a Ki of 6.31 nM.
As for `CC(C)N1CCC(=Cc2c[nH]cn2)CC1`, on Histamine H3 receptor [1], the EC50 was 63.1 nM. The affinity on Histamine H3 receptor [2], expressed as Ki, was 63.1 nM.
In turn, `c1ccc(CCCN2CCC(Cc3c[nH]cn3)CC2)cc1` had an EC50 at Histamine H3 receptor [1] of 31.6 nM. The compound also showed a Ki at Histamine H3 receptor [2] of 39.8 nM.
The corresponding values for `c1nc(CCC2CCN(C3CCCCC3)CC2)c[nH]1` are 316 nM and 158 nM.
The corresponding values for `c1ccc(CN2CCC(Cc3c[nH]cn3)CC2)cc1` are 15.8 nM and 50.1 nM.
On to `c1nc(CC2CCNCC2)c[nH]1` [IMMEPIP], for which, in assay [3], the pD2 is listed as 8.4. For the same compound, the Ki at Histamine H4 receptor is 20 nM; on Histamine H2 receptor it was above 10000 nM; on Histamine H3 receptor [2], 0.501 nM.
`CN1CCC(Cc2c[nH]cn2)CC1` [METHIMEPIP]: in assay [3], the pD2 turned out to be 8.26. The same compound had an EC50 on Histamine H3 receptor [1] of 0.316 nM. For the same compound, the Ki at Histamine H4 receptor is 2000 nM; on Histamine H1 receptor, above 10000 nM; at Histamine H2 receptor, above 10000 nM; at Histamine H3 receptor [2], 1 nM.
